# Source: patent US9879235B2, “Wheat plants having increased resistance to imidazolinone herbicides” (University of Saskatchewan, priority 2001, dated 2018)
# Key:
# [1] = test system: Einkorn check (non-herbicide tolerant); assay: Field evaluation of herbicide injury, Einkorn check; type: in vivo, Triticum monococcum
# Description: (§1) The EM2 line tolerant to imazamox (Example 1) was evaluated at a single field location for various agronomic characteristics that could be affected by herbicide injury. The 1998 data are means of two replications. Yield data from 1999 and 2000 are means of four replications. The other data from 1999 are means of two replications.
# (§2) The EM2 line was evaluated for overall crop injury at three rates of imazamox, three times during the growing season.
# [2] = test system: EM2 line in Einkorn background; assay: Field evaluation of herbicide injury, EM2 line; type: in vivo, Triticum monococcum; details: for overall crop injury: three rates of imazamox
# Description: (§3) Approximately 15,000 seeds of the Triticum monococcum spring habit accession “TM23” was treated with EMS. The method used was: (1) presoak seed in water for four hours, (2) treat with 0.3% EMS for 16 hours, (3) rinse in water for 8 hours, (4) air-dry for four hours, and (5) plant the seed. Some of the harvested seed was further increased without selection for tolerance to imidazolinone herbicides. The harvested seed was planted and treated with 40 g/ha of imazamox. A total of 120 kg of seed was planted, resulting in approximately 2.4 million plants treated, assuming a kernel weight of 35 mg and 70% seedling emergence. The generation of seed screened ranged from M2 to M5, with over 72% of seed at least M3. Five plants were identified as tolerant, designated EM1 through EM5, and transplanted to a greenhouse for seed production. EM2 was increased under imidazolinone herbicide selection prior to initial field testing (Example 4).
# as §1, §2
# [3] = test system: 00DIMI#17 (EM2 in durum background); assay: Tolerance of EM2 durum recovery 00DIMI#17; type: in vivo, T. turgidum ssp durum
# Description: (§4) T. aestivum was used as the bridging species to transfer the EM2 gene from T. monococcum to T. turgidum. In each generation, plants were treated with at least a 20 g/h rate of imazamox prior to selecting plants as parents. An intermediate T. aestivum conversion with the pedigree “Crocus*2/EM2//CDC Tea1/3/2*AC Superb” tolerant to imazamox was crossed by the durum line AC Avonlea. The resultant F1 plants were selfed to produce an F2 population, from which 52/390 plants were identified as resistant (no injury from herbicide application). Some of these were used as females and crossed by AC Avonlea. The resultant BC1F1 plants were again crossed by AC Avonlea. For the subsequent two generations, AC Avonlea was used as the female. The resultant line was designated 00DIMI#17 and had the pedigree: AC Avonlea*2/3/Crocus*2/EM2//CDC Tea1/3/2*AC Superb//3*AC Avonlea. This line was selfed to the F2, and F2 plants treated with 40 g/h of imazamox. Resistant F2 plants were advanced to the F4 generation.
# (§5) The breeding history of the lines tested was previously described (Example 2). […] The doubled haploid derived line P00.45, composed of EM2 in a hexaploid background, was tolerant to 20 g/ha imazamox as a parental check in allelism studies described in Example 3; all plants of the susceptible hexaploid check were killed at that rate.
# [4] = test system: susceptible durum line used as a check; assay: Tolerance test, susceptible durum check; type: in vivo, T. turgidum ssp durum; details: 80 g/h of imazamox
# [5] = test system: P00.45 (EM2 in a hexaploid background); assay: Tolerance of doubled haploid line P00.45 (parental check in allelism studies); type: in vivo, T. aestivum ssp aestivum; details: 20 g/ha imazamox
# Description: EMIMI is the designation of the T. monococcum EM2 source parent. Crocus is the designation of the T. aestivum ssp aestivum parent used. 605 florets of crocus were pollinated with EMIMI pollen, resulting in 84 F1 seed. 38,409 florets of the F1 plants were pollinated using Crocus pollen, resulting in 2 embryos which were embryo-rescued. The resultant BC1F1 plants were selfed to BC1F2 and treated with 20 g/ha of imazamox. […] Resistant plants were crossed by the bread wheat variety Tea1, representing the 3rd dose of bread wheat. Plants of the resultant line, with a pedigree of Crocus*2/EMIMI//CDC Tea1/3/ were crossed with either AC Elsa or AC Superb and coded respectively, 98PH8 (Elsa cross) and 98PH9 (Superb cross), 98PH8 was crossed an additional six times with AC Elsa and 98PH8 was crossed an additional six times with AC Superb. Two populations were coded as follows: • P00.35=98PH8/6*Elsa=Crocus*2/EM2//CDC Tea1/3/7*AC Elsa • P00.45=98PH9/6*Superb=Crocus*2/EM2//CDC Tea1/3/7*AC Superb. Segregation of the backcross-derived plants in both populations fit an expected 1:1 tolerant:susceptible single gene model when treated with 20 g/h of imazamox. […] Doubled haploids were produced from each population using the maize pollination method. Seven resistant DH lines were obtained from P00.35 and 78 resistant DH lines were obtained from P00.45. […]
# [6] = test system: susceptible hexaploid check / susceptible wheat plants; assay: Tolerance test, susceptible hexaploid check; type: in vivo, T. aestivum
# Description: In all the following discussion, the application rate of the imidazolinone herbicide imazamox that was used in the inheritance studies was 20 grams per hectare.
# as §5
# BW755 (FS4 only line) = assay: Seedling injury rating, one-gene line; type: in vivo, wheat; details: 200 and 600 grams per hectare
# Description: (§6) Four genotypes were tested for tolerance to two different rates of imazamox. Genotypes included an FS4 only line, BW755; Tea1 15A, previously described as having two independent loci for tolerance to Imi-herbicides; a double-haploid derived line of EM2+FS4, and a line derived from the cross of 15A and 11A, through conventional bulk selection of the most tolerant plants over successive generations at increasing rates of imazamox. Rates of imazamox included 200 and 600 grams per hectare. Seedling injury of the 18 to 25 plants per treatment per genotype was rated on a per plant basis using five categories ranging from death to no injury.
# Tea1 15A = assay: Seedling injury rating, two-gene line Tea1 15A; type: in vivo, wheat
# Description: as §6
# [7] = test system: double-haploid derived line of EM2+FS4; assay: Seedling injury rating, two-gene line EM2+FS4; type: in vivo, wheat
# Description: as §6
# [8] = test system: line derived from the cross of 15A and 11A; assay: Seedling injury rating, three-gene line; type: in vivo, wheat
# Description: as §6
# [9] = test system: F2 population of Crocus*2/EM2//CDC Tea1/3/2*AC Superb crossed by AC Avonlea; assay: Herbicide selection in F2 of EM2 conversion x AC Avonlea; type: in vivo, T. aestivum x T. turgidum; details: at least a 20 g/h rate of imazamox
# Description: as §4
# [10] = test system: BC1F2 plants of Crocus*2/EMIMI; assay: Herbicide treatment of BC1F2 plants (Crocus x EMIMI); type: in vivo, T. aestivum x T. monococcum; details: 20 g/ha of imazamox, 24 plants treated
# Description: (§7) EMIMI is the designation of the T. monococcum EM2 source parent. Crocus is the designation of the T. aestivum ssp aestivum parent used. 605 florets of crocus were pollinated with EMIMI pollen, resulting in 84 F1 seed. 38,409 florets of the F1 plants were pollinated using Crocus pollen, resulting in 2 embryos which were embryo-rescued. The resultant BC1F1 plants were selfed to BC1F2 and treated with 20 g/ha of imazamox. […] Resistant plants were crossed by the bread wheat variety Tea1, representing the 3rd dose of bread wheat. Plants of the resultant line, with a pedigree of Crocus*2/EMIMI//CDC Tea1/3/ were crossed with either AC Elsa or AC Superb and coded respectively, 98PH8 (Elsa cross) and 98PH9 (Superb cross), 98PH8 was crossed an additional six times with AC Elsa and 98PH8 was crossed an additional six times with AC Superb. Two populations were coded as follows: • P00.35=98PH8/6*Elsa=Crocus*2/EM2//CDC Tea1/3/7*AC Elsa • P00.45=98PH9/6*Superb=Crocus*2/EM2//CDC Tea1/3/7*AC Superb. Segregation of the backcross-derived plants in both populations fit an expected 1:1 tolerant:susceptible single gene model when treated with 20 g/h of imazamox. […] Doubled haploids were produced from each population using the maize pollination method. Seven resistant DH lines were obtained from P00.35 and 78 resistant DH lines were obtained from P00.45.
# [11] = test system: backcross-derived plants in populations P00.35 and P00.45; assay: Segregation of backcross-derived plants P00.35 and P00.45; type: in vivo, T. aestivum; details: 20 g/h of imazamox; single heterozygous tolerance gene
# Description: as §7
# [12] = test system: EMS-treated Triticum monococcum accession TM23; assay: Selection of tolerant plants after EMS mutagenesis; type: in vivo; details: 40 g/ha of imazamox, approximately 2.4 million plants treated
# Description: as §3
# [13] = higher rate, 600 grams per hectare
# [14] = lower rate, 200 grams per hectare
structure (smiles),measurement,setting,value
COCc1cnc(C2=NC(C)(C(C)C)C(=O)N2)c(C(=O)O)c1 (centres unmarked) [imazamox],susceptibility of plants,"[1]; 40 grams of imazamox, field",all plants dying
same,overall crop injury,"[1]; 2000, non-herbicide tolerant check",virtually killed
same,tolerance,"[2]; 40 g/ha rate, field",excellent tolerance
same,overall crop injury,"[2]; 1999, three times during the growing season",only slight injury
same,overall crop injury,[2]; 2000,no injury
same,tolerance of plants,"[3]; F4:5 lines, 80 g/h of imazamox",all plants were tolerant
same,susceptible plants,"[3]; F4:5 lines, 124 plants treated with 80 g/h",no susceptible plants were found
same,survival of plants,"[3]; F4 plants, 80 g/h imazamox",All 53 F4 plants tested survived
same,plant kill,[4],killed
same,tolerance,[5],tolerant
same,plant kill,[6]; 20 g/ha imazamox,killed
same,plant kill at the rate of the inheritance studies,[6]; 20 grams per hectare,sufficient to kill
same,plants killed,BW755 (FS4 only line),No plants were killed
same,seedling injury,BW755 (FS4 only line),injured at both rates
same,plants killed,Tea1 15A; 200 and 600 grams per hectare,No plants were killed
same,seedling injury,Tea1 15A; [13],all were injured
same,seedling injury,Tea1 15A; [14],No injury
same,plants killed,[7]; 200 and 600 grams per hectare,No plants were killed
same,seedling injury,[7]; [13],all were injured
same,seedling injury,[7]; [14],No injury
same,plants killed,[8]; 200 and 600 grams per hectare,No plants were killed
same,seedling injury,"[8]; 200 and 600 grams per hectare, line still segregating",some plants exhibiting injury at both rates
same,plants without injury,"[8]; highest rate, 600 grams per hectare",approximately half the plants had no injury
same,plants identified as resistant (no injury from herbicide application),[9],52/390
same,fully resistant plants,[10],11
same,plants that showed some injury,[10],7
same,susceptible plants,[10],6
same,injury of plants scored as tolerant,[11],sustained some injury
same,plants identified as tolerant,[12],Five
